Earlier results as cited in patent publication US20260069708A1 (priority 2022, published 2026).

Settings: reportedly

In the case of COc1cccc2c1C(=O)c1c(O)c3c(c(O)c1C2=O)C[C@@](O)(C(=O)CO)C[C@@H]3O[C@H]1C[C@H](N)[C@H](O)[C@H](C)O1 [Dox, doxorubicin], the “fold lower IC50 than irinotecan” value is listed as 10-100 fold.
